Results reported in article PMC12284294 (iScience, 2025).

Key:
[1] = test system: human polymorphonuclear granulocytes (PMN; neutrophils); assay type: cell-based
FPR1, FPR2, FPR3, PMN = assay type: cell-based, human
FPR1 = target: T1, FPR1 (Homo sapiens, UniProt P21462); assay type: cell-based
T1 construct: expressed in transfected cells; host or cells: HEK293T
T1 sequence (P21462 1-350): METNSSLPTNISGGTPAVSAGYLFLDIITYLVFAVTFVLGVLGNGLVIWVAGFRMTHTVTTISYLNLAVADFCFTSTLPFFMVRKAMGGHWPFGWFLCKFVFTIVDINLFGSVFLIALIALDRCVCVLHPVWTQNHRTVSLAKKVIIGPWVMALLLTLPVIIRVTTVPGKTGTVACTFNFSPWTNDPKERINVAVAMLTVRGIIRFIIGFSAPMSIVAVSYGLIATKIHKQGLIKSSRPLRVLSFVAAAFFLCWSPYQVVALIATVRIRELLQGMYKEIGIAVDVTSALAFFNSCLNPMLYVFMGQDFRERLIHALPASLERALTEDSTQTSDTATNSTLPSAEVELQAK

GCLIGAEYVNNSYEC [Omicron Variant SCoV2_52, 15mer of Omicron spike pool library]
significant PMN activators (group of the spike peptide pool screening) ([1]; SARS-CoV-2 omicron B.1.1.529 spike pool peptides, 10 µM, PMN, n=6): significant PMN activators | neutrophil calcium mobilization in library screening ([1]; individual peptides 10 μM, n = 6): activator | Match with activator (region): Receptor (FPR1, FPR2, FPR3, PMN): PMN + FPR1 | significant FPR1 activators (group of the spike peptide pool screening) (FPR1): significant FPR1 activators | FPR1 calcium activation in library screening (FPR1; individual peptides 10 μM, n = 3): activator
